Values of other authors, collected in patent publication US20060068010A1, “Method for improving the bioavailability of orally delivered therapeutics” (priority 2004, published 2006).
Counter-ions that a name gives are not always drawn. Like-named read-outs stand apart in the source and are kept apart here.

What was measured:
[1] = normalized to glycine = 0, most hydrophobic = 100
[2] = humans

Structure (SMILES) | Hydrophobicity Index ([1]; At pH 2) | Hydrophobicity Index ([1]; At pH 7) | also measured
CN(CCOc1ccc(CC2SC(=O)NC2=O)cc1)c1ccccn1.O=C(O)/C=C\C(=O)O (racemic) [Rosiglitazone maleate, (±)-5-[[4-[2-(methyl-2-pyridinylamino)ethoxy]phenyl]methyl]-2,4-thiazolidinedione, (Z)-2-butenedioate (1:1)] | – | – | solubility dependence on pH (physiological pH range): decreases with increased pH
Cc1nccn1CC1CCc2c(c3ccccc3n2C)C1=O (racemic) [ondansetron, (+/−) 1,2,3,9-tetrahydro-9-methyl-3-[2-methyl-1H-imidazol-1-yl]-4H-carbazol-4-one, monohydrochloride, dehydrate] | – | – | solubility classification (base form, at pH greater than 5.0): low solubility
C[C@H](N)C(=O)O [Ala, Alanine] | 47 | 41 | –
NC(=O)C[C@H](N)C(=O)O [Asn, asparagine] | −41 | −28 | –
CC(C)NCC(O)COc1ccc(CC(N)=O)cc1 (stereo not drawn) [Atenolol, benzeneacetamide, 4-[2′-hydroxy-3′-[(1-methylethyl)amino]propoxy]-] | – | – | fraction of an oral dose absorbed from the gastrointestinal tract [2]: about 50%
N[C@@H](CS)C(=O)O [Cys, cysteine] | 52 | 49 | –
N[C@@H](Cc1c[nH]cn1)C(=O)O [His, histidine] | −42 | 8 | –
CC[C@H](C)[C@H](N)C(=O)O [Ile, isoleucine] | 100 | 99 | –
NCCCC[C@H](N)C(=O)O [Lys, lysine] | −37 | −23 | –
CSCC[C@H](N)C(=O)O [Met, methionine] | 74 | 74 | –
N[C@@H](Cc1ccccc1)C(=O)O [Phe, phenylalanine] | 92 | 100 | –
N[C@@H](Cc1c[nH]c2ccccc12)C(=O)O [Trp, tryptophan] | 84 | 97 | –
N[C@@H](Cc1ccc(O)cc1)C(=O)O [Tyr, tyrosine] | 49 | 63 | –
CC(C)[C@H](N)C(=O)O [Val, valine] | 79 | 76 | –
O=C(c1ccc(OCCN2CCCCC2)cc1)c1c(-c2ccc(O)cc2)sc2cc(O)ccc12 [raloxifene hydrochloride, 6-hydroxy-2-(4-hydroxyphenyl)-3-[4-(2-piperidinoethoxy)benzoyl]benzo[p]-thiophene] | – | – | solubility (hydrochloride-salt form): approximately 0.3 mg/mL; solubility classification (hydrochloride-salt form): very slightly soluble
